From patent US8153773B2, “Synthesis and use of anti-reverse phosphorothioate analogs of the messenger RNA cap” (Board of Supervisors of Louisiana State University and …, priority 2007, dated 2012)

Assays:
[1] = biological target: T1, hDcp2 (Homo sapiens, UniProt Q8IU60); experiment: In vitro RNA decapping assay with recombinant hDcp2; type: biochemical; conditions: capped 32P-labeled short RNA, recombinant hDcp2, anion exchange HPLC (FIG. 6)
Procedure: Dcp2 activity was measured with capped 48-nt oligonucleotides as substrates, a truncated form of luciferase mRNA (48 nucleotides). GST-hDcp2 was expressed in Escherichia coli and purified as described by Z. Wang et al., “The hDcp2 protein is a mammalian mRNA decapping enzyme,” Proc. Natl. Acad. Sci. U.S.A., vol. 99, pp. 12663-12668 (2002). Capped oligonucleotides were first subjected to digestion with GST-hDcp2 at 37° C. for 2 h in decapping buffer (10 mM Tris-HCl, pH 7.5, 100 mM potassium acetate, 2 mM magnesium acetate, 0.5 mM MnCl2, 2 mM dithiothreitol, and 0.1 mM spermine). See C. Piccirillo et al., “Functional characterization of the mammalian mRNA decapping enzyme hDcp2,” RNA, vol. 9, pp. 1138-1147 (2003). The reaction mixture was then extracted once with an equal volume of phenol and twice with chloroform, and RNA was precipitated with ethanol. Products of the decapping reaction were further digested with a cocktail of ribonucleases (RiboShredder; Epicentre) at 37° C. for 1 h. The products were resolved by anion-exchange HPLC on a 4.6×250-mm Partisil 10SAX/25 column (Whatman). The gradient consisted of water for 1 min, a linear gradient to 112 mM KH2PO4, pH 4.5, for 20 min, a linear gradient of 112-450 mM KH2PO4 for 15 min, a linear gradient of 450 mM to 1.5 M KH2PO4 for 15 min, and isocratic elution at 1.5 M of KH2PO4 for 9 min, all at a flow rate 1 ml/min.
We tested oligonucleotides capped with either of S-ARCAs for hydrolysis by recombinant hDcp2 to test whether mRNA capped with the various diastereomers of m2^7,2′-OGpppsG and m2^7,2′-OGppspG would differ in their sensitivity to cleavage by Dcp1/Dcp2. See generally Z. Wang et al., “The hDcp2 protein is a mammalian mRNA decapping enzyme,” Proc. Natl. Acad. Sci. U.S.A., vol. 99, pp. 12663-12668 (2002), and Z. Wang et al., “An mRNA Stability Complex Functions with Poly(A)-Binding Protein To Stabilize mRNA In Vitro”, Mol. Cell. Biol., vol. 19, pp. 4552-4560 (1999). Cap analogs used were initially unlabeled, so to follow the products of the digestion reaction we synthesized capped oligonucleotides in the presence of [α-^32P]GTP and a DNA template in which G was the first ribonucleotide specified after the promoter. The oligonucleotides capped with either of the S-ARCAs were subjected to Dcp2 digestion in vitro, after which the products were further digested with a cocktail of ribonucleases (RiboShredder from Epicenter). Any nucleotide on the 5′ side of a G residue acquired a ^32P-labeled 3′-phosphate group after ribonuclease digestion by nearest-neighbor transfer. Anion exchange chromatography was then used to resolve the labeled 3′-nucleoside monophosphates (3′-NMP*), at internal positions in the RNA, from labeled 5′-terminal products (FIG. 6). The latter comprise p3 Gp* derived from uncapped transcripts and m2^7,2′-OGp3 Gp* (when m2^7,2′-OGp3G was used), or pGp* resulting from capped RNA resistant or nonresistant to enzymatic cleavage, respectively. All cap analogs used were ARCAs, which ensured that they were incorporated into RNA exclusively in the correct orientation. This further guaranteed that only one 5′-terminal product (m2^7,2′-OGp3 Gp*) was observed upon ribonuclease treatment. Uncapped RNA is not a substrate for Dcp2, which explains why p3 Gp* product was observed after Dcp2 digestion.
See E. Grudzien et al., “Differential inhibition of mRNA degradation pathways by novel cap analogs,” J. Biol. Chem., vol. 281, pp. 1857-1867 (2006).

[2] = biological target: T1, hDcp2; conditions: Grudzien et al. 2006; cited from earlier work
[3] = biological target: T2, DcpS (Homo sapiens, UniProt Q96C86); experiment: Enzymatic hydrolysis by human DcpS; type: biochemical; design: key: the analogs assigned as resistant remained completely undigested under the applied conditions; the analogs assigned as hydrolyzed were hydrolyzed by DcpS with efficiency comparable to the respective unmodified parent compound; conditions: conditions giving complete degradation of unmodified parent within 40-90 min, RP HPLC
T2 sequence (Q96C86 1-337): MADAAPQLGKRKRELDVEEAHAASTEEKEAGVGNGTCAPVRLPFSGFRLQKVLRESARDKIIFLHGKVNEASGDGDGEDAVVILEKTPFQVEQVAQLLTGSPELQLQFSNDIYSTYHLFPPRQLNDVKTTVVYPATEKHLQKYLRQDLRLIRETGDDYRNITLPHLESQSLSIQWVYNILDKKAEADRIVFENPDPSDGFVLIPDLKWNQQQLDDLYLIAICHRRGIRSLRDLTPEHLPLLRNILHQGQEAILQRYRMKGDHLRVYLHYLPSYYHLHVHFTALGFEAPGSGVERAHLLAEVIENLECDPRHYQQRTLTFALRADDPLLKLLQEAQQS
Procedure: (§1) Human and nematode DcpS were expressed in Escherichia coli according to the procedures described previously (L. S. Cohen et al., “Nematode m7 GpppG and m3(2,2,7)GpppG decapping: activities in Ascaris embryos and characterization of C. elegans scavenger DcpS,” RNA, vol. 10, pp. 1609-1624 (2004)). Both proteins were stored at −80° C. in 20 mM Tris buffer, pH 7.5, containing 50 mM KCl, 0.2 mM EDTA, 1 mM DTT, 0.5 mM PMSF, and 20% glycerol. An appropriate cap analog at 1 mM concentration was treated with 5.0 or 7.0 μl of DcpS (from human or C. elegans, respectively) in 500 μl of 50 mM TRIS buffer, pH=7.9, containing 20 mM of MgCl2 and 60 mM of (NH4)2SO4 at 37° C. for 60-90 min. Every 15-20 min a 100 μl sample was collected from the reaction mixture and deactivated by incubation in 90° C. for 3 min. Collected samples were analyzed without further treatment by analytical RP HPLC using a linear gradient of methanol in 0.1 M KH2PO4, pH=6.0, from 0-50% within 15 min and UV-detection at 260 nm.
(§2) The new series of S-analogs were subjected to in vitro enzymatic hydrolysis catalyzed by DcpS from both human and C. elegans sources. In all experiments, the corresponding unmodified cap analog was used as a positive control, i.e., m^7GpppG for non-ARCA S-analogs and m2^7,2′-OGpppG for S-ARCAs. The amount of DcpS enzyme was optimized to provide complete degradation of the control substrate within 40-90 min. The samples collected from reaction mixtures at various time intervals were analyzed by RP HPLC (as described in Materials and Methods).
(§3) In Table 4, cap analogs at 4 μM concentration were subjected to enzymatic digestion by DcpS in conditions leading to complete degradation of the unmodified parent compound (i.e. m^7GpppG for non-ARCA S-analogs and m2^7,2′-OGpppG for ARCAs) within 40-90 min. Samples collected from reaction mixtures at various time intervals were analysed by RP HPLC with UV detection at 260 nm as described in Materials and Methods. […] The result was unchanged even if the reaction time was extended to 24 h, various amounts of enzyme were used, and composition of the reaction buffer was modified.

[4] = biological target: T3, DcpS (Caenorhabditis elegans, UniProt G5EFS4); experiment: Enzymatic hydrolysis by C. elegans DcpS; type: biochemical; design: key: the analogs assigned as resistant remained completely undigested under the applied conditions; the analogs assigned as hydrolyzed were hydrolyzed by DcpS with efficiency comparable to the respective unmodified parent compound; conditions: conditions giving complete degradation of unmodified parent within 40-90 min, RP HPLC
T3 sequence (G5EFS4 1-311): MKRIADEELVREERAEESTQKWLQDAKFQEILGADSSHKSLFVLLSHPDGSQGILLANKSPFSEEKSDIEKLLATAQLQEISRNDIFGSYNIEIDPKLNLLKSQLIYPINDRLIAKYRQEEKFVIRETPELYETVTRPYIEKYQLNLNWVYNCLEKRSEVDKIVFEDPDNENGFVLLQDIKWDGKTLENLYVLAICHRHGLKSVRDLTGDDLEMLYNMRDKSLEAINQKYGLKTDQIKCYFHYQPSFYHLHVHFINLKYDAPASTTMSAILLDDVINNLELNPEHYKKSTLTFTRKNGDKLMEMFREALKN
Procedure: as §1, §2, §3

[5] = test system: HC11 cells; experiment: Translational efficiency of capped luciferase mRNA in HC11 cells; type: cell-based, mouse; conditions: Luc-A60 mRNA capped with the analog in HC11 cells, relative to m^7Gp3G-capped mRNA
Procedure: Two methods, electroporation and nucleoporation, were used to deliver RNA into cells. In case of electroporation, 5 μg of RNA were introduced into 10^7 HC11 cells in a total volume 400 μl of serum-reduced RPMI 1640 medium in a Gene pulser cuvette (4 mm gap) with a Bio-Rad Genepulser™ set at 0.22 kV and 960 μF. Following discharge, the cells were washed twice with PBS, centrifuged for 2 min 300×g at room temperature, resuspended in prewarmed complete medium, and placed at 37° C. Nucleoporation was performed with an Amaxa Nucleofector II (Amaxa Biosystems) in accordance with manufacture's recommendations. One microgram of RNA was introduced into 10^6 HC11 cells with Nucleofector Solution V and the set of recommended regimens (program T-024).
For measurement of translational efficiency, cells were divided into several Eppendorf tubes, placed in a water bath at 37° C., and shaken. For measurement of mRNA stability, cells were distributed into 35-mm cell culture dishes and placed at 37° C. in a 5% CO2 humidified atmosphere. Cells were harvested at various times and washed twice with PBS.
For cytoplasmic RNA extraction, 2×10^5 cells were lysed in 175 μl of lysis buffer (50 mM Tris-HCl, pH 8.0, 140 mM NaCl, 1.5 mM MgCl2, 0.5% (v/v) Igepal (Sigma), and 1 mM dithiothreitol). RNAs were further purified using the RNeasy mini kit. For protein extraction, 2×10^5 cells were lysed in 200 μl of Luciferase Cell Culture Lysis Reagent (Promega). Luciferase activity of cell extracts was measured according to the manufacturer's protocol (Promega).
We also determined the translational efficiency in cultured cells for luciferase mRNA capped with S-ARCAs. This involved two measurements conducted at various times following nucleoporation—luciferase activity measured by luminometry in cleared cell lysates, and Luc-A60 levels measured by real-time PCR. Luciferase activity was normalized by the amount of luciferase mRNA that had been delivered into cells. To determine the amount of RNA present in the cells at a time immediately after nucleoporation, i.e., before any decay had occurred, cells were harvested at various times between 2 to 8 h post-nucleoporation, and cytoplasmic RNA was extracted. The amount of luciferase mRNA was measured by real time PCR using primers that amplify sequences near the 5′-end. Luciferase mRNA remaining at each time point was plotted as log10 ([RNA]) versus time to determine t1/2. The curve was extrapolated to 0 h, and the amount of RNA delivered into the cells was calculated. We defined conditions under which the accumulation of luciferase was linear with time, after an initial lag period of ˜30 min for recruitment of mRNA to ribosomes, completing the first polypeptide chain, and release of luciferase into the cytosol.

[6] = biological target: T4, murine eIF4E (28-217) (Mus musculus, UniProt P63073); experiment: Binding affinities for eIF4E by fluorescence quenching; conditions: murine eIF4E (28-217)
T4 construct: (28-217) to phosphorothioate cap analogs, as determined
T4 sequence (P63073 28-217): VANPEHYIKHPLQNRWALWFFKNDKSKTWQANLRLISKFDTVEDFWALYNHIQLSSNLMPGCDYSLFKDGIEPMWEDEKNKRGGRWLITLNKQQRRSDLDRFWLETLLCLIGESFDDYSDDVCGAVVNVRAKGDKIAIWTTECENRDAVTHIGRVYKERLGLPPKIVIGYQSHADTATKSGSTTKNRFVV
Procedure: Binding affinities of S analogs for murine eIF4E were determined by fluorescence quenching. Fluorescence titration measurements were carried out on an LS-50B spectrofluorometer (Perkin Elmer Co.) in 50 mM HEPES/KOH (pH 7.2), 100 mM KCl, 0.5 mM EDTA, 1 mM DTT at 20.0±0.2° C. Aliquots of 1 μl increasing concentration of cap analogue solutions were added to 1.4 ml of […] solutions. Fluorescence intensities (excitation at 280 nm with 2.5 nm bandwidth and detection at 337 nm with 4 nm bandwidth and 290 nm cut-off filter) were corrected taking into account sample dilution and the inner filter effect. Equilibrium association constants (KAS) were determined by fitting the theoretical dependence of the fluorescence intensity on the total concentration of cap analogue to the experimental data points according to equation described previously (See A. Niedzwiecka et al., “Biophysical studies of eIF4E cap-binding protein: recognition of mRNA 5′ cap structure and synthetic fragments of eIF4G and 4E-BP1 proteins,” J. Mol. Biol., vol. 319, pp. 615-635 (2002)). The concentration of protein was fitted as a free parameter of equilibrium equation showing amount of “active” protein. The final KAS was calculated as a weighted average of three to ten independent titrations, with the weights taken as the reciprocals of the numerical standard deviations squared. Numerical nonlinear least-squares regression analysis was performed using ORGIN 6.0 (Microcal Software Inc., USA). The Gibbs free energy of binding was calculated from the KAS value according to the standard equation ΔG°=−RTlnKAS.

| Compound | hydrolysis of capped oligonucleotide by hDcp2 [1] | hydrolysis of capped mRNA by recombinant human Dcp2 in vitro [2] | Resistance to enzymatic hydrolysis by DcpS (human) [3] | Resistance to enzymatic hydrolysis by DcpS (from C. elegans) [4] | Relative translational efficiency [5] | ΔG° ([6]; binding free energy calculated from KAS) [kcal/mol] | KAS ([6]; equilibrium association constant, fluorescence quenching) [µM⁻¹] |
| --- | --- | --- | --- | --- | --- | --- | --- |
| CO[C@H]1[C@@H](O)[C@H](n2c[n+](C)c3c(=O)[nH]c(N)nc32)O[C@@H]1COP(=O)(O)OP(=O)(O)CP(=O)(O)OC[C@H]1O[C@@H](n2cnc3c(=O)[nH]c(N)nc32)[C@H](O)[C@@H]1O [m2^7,3′-OGppCH2pG, reference compound] | resistant | resistant to hydrolysis | – | – | – | – | – |
| Cn1c[n+]([C@@H]2O[C@H](COP(=O)(O)OP(=O)([O-])OP(=O)(O)OC[C@H]3O[C@@H](n4cnc5c(=O)[nH]c(N)nc54)[C@H](O)[C@@H]3O)[C@@H](O)[C@H]2O)c2nc(N)[nH]c(=O)c21 [m^7GpppG, reference compound] | – | – | hydrolyzed | hydrolyzed | 1.00 | -9.35 ± 0.02 | 9.4 ± 0.4 |
